Source: US9504751B2, “Stable pharmaceutical composition” (EVERFRONT BIOTECH INC., priority 2014, dated 2016)
In brackets after ≈: the same amount, converted by molar mass.

Experiments:
[1] = Room-temperature stability test: appearance of the composition; type: physicochemical; conditions: PBS
Protocol: The stability study of the pharmaceutical composition was performed by: (1) observing the appearance of the pharmaceutical composition after storage at room temperature for 3 or 7 days, and classifying the results into “V” (if the pharmaceutical composition remained homogeneous) and “X” (if the pharmaceutical composition separated into two layers or had precipitation) to evaluate the appearance stability; and (2) analyzing the purity of n-butylidenephthalide by measuring the impurities in the pharmaceutical composition through relative retention time (RRT) using a LCMS instrument with the following conditions.

[2] = Droplet size, electrical conductivity and zeta potential analyses; type: physicochemical; conditions: sample with n-butylidenephthalide 200 μg/mL
Protocol: The pharmaceutical composition was formulated to provide a sample in which the concentration of n-butylidenephthalide is 200 μg/mL. The droplet size, electrical conductivity and zeta potential of the sample were analyzed using a high concentration nano-droplet size and zeta potential meter (Malvern Nano-ZS ZEN-3600).

[3] = Viscosity analysis (AR2000 rheometer); type: physicochemical
Protocol: The viscosity analysis was performed by measuring the relationship of viscosity of a sample to shear rate and rheological property of the sample using AR2000 rheometer (stress control) (from TA Instruments; measuring mold: cone and plate; amount of sample: 1 mL).

[4] = tested on: GBM 8401 cells; experiment: Cytotoxicity test (IC50 value), MTT cell survival assay; type: cell-based; conditions: Homo sapiens, 24 hours
Protocol: GBM 8401 cells (i.e., a human brain glioblastoma multiforme cell line) were cultured in a 96-well culture plate with a cell number of 6×10^3 per well, and treated with pure n-butylidenephthalide (BP) or one of the pharmaceutical compositions for 24 hours. The treatment concentrations of active ingredient, n-butylidenephthalide (BP), were 0 μg/mL (i.e., control group), 12.5 μg/mL, 25 μg/mL, 50 μg/mL, 100 μg/mL and 200 μg/mL, respectively. Then, the half maximal inhibitory concentration (IC50) of each pharmaceutical composition to GBM 8401 cells was analyzed by MTT (3-(4,5-cimethylthiazol-2-yl)-2,5-diphenyl tetrazolium bromide) cell survival assay, to evaluate the cytotoxic effect.

[5] = In vitro artificial cellulose membrane test (Franz diffusion device); type: in vitro ADME; conditions: 37° C., 10 hours
Protocol: A Franz diffusion device (SUNMEI instruments Co., Ltd, Taiwan) shown in FIG. 5 was used to estimate the ability of pure n-butylidenephthalide (BP) liquid and the pharmaceutical compositions to permeate trough the artificial cellulose membrane, to simulate their permeation through a nasal mucosa. The superficial area of diffusion of the device is about 4.5 cm^2, and the capacity volume of receptor chamber of the device is about 23 mL. […]

[6] = In vitro cell line permeation test; type: in vitro ADME, human; conditions: human, RPMI 2650 cellular monolayer, 37° C., read-out: Peff ± SD
Protocol: (§1) [formula] V: Capacity of receptor chamber (mL) C0: Initial supplied concentration of drug (μg/mL) Peff: Permeability coefficient (cm/s) J: Flux (μg/cm^2·s) A: Superficial area of diffusion (cm^2)
(§2) [formula] Change of the concentration along with time under a stable status (μg/mLs)
(§3) RPMI 2650 cells (i.e., a human nasal septum squamous cell line) were seeded in a collagen-coated cell insert with 0.4 μm pore size and cultured for 2 days to lead the cells to form a cellular monolayer on the insert. The cell insert was then transferred into a 12-well plate with 1.5 mL of Hepes buffer inside. 0.5 mL of Hepes buffer containing pure n-butylidenephthalide or the pharmaceutical composition was added into the 12-well plate. Next, the 12-well plate was placed into an incubator (37° C., 5% CO2) and incubated. The buffer in each well of the 12-well plate was collected every 1 hour (6 hours in total), and the absorption spectrum of the sampled buffer was detected by a spectrophotometer at […] wavelength to calculate the concentration of n-butylidenephthalide or the pharmaceutical composition. The permeability coefficient (Peff) and flux (J) were calculated by using the above Formula 1 and Formula 2.

[7] = tested on: RPMI 2650 cells; experiment: In vitro cell line permeation test; type: in vitro ADME, human; conditions: RPMI 2650 cellular monolayer, 37° C., 6 hours
Protocol: as §1, §2, §3

[8] = tested on: 9 L (rat brain gliosarcoma cell line) tumor tissue; experiment: Intranasal treatment of rats with intracranially transplanted 9 L tumor; type: in vivo
Protocol: 9 L (i.e., a rat brain gliosarcoma cell line) tumor tissue was intracranially transplanted into rats. The test of drug treatment was conducted after the intracranial tumor formed. The test method includes: (i) using 400 mg/kg of chloral hydrate (Sigma-Aldrich Company Ltd.) to anesthetize the rats, shaving the hair on the head of rats after the rats were in a coma, and fixing the rats in a stereotaxic instrument (Lab Standard™ Stereotaxic Instrument); (ii) scissoring the scalp by shears to expose the cranium, setting the bregma as a center, and drilling a 5 mm hole at the positioned drilling site 3 mm right to and 5 mm below the bregma on the cranium by a drill; (iii) clamping the prepared 9 L tumor tissue (1×1×1 mm^3) by a forceps and transplanting it into 3 mm depths within the brain, and then, resting for 1 minute to coagulate the blood, removing the forceps, and coating the bone wax on the hole, lastly, suturing the scalp of rats and administering the rats with antibiotics; (iv) 7 days after the transplantation of tumor tissue, randomly grouping the rats as the following Table 11, and then, sucking a drug (n-butylidenephthalide (BP) or pharmaceutical composition 5) by a pipette and dropping the drug into the nasal cavity of the rats to conduct an intranasal administration, and repeating the administration for 30 days and recording the body weight of rats and the number of dead rats during this medical treatment; and (v) removing the tumor, and then, measuring the length-breadth of tumor by an electronic vernier caliper and calculating the total volume of tumor by using the following Formula 3, measuring the weight of tumor at the same time, and drawing the obtained values into a bar diagram and a curve diagram, to determine the therapeutic effect.

[9] = Solubility of n-butylidenephthalide in solvents; type: physicochemical; conditions: organic solvent or mixture

With `CCCC=C1OC(=O)c2ccccc21` [Pure BP, n-butylidenephthalide] the “Amount stable in the medium system” value ([1]; polyethoxylated castor oil, and ethanol with polypropylene glycol) was “up to 208 mg/mL”, the “Amount stable in the medium system” value ([1]; polyethoxylated castor oil, and polyethylene glycol with dimethyl sulfoxide or with ethanol (Examples 1, 5 and 6)) was “up to 1000 mg/mL” and the Electrical conductivity [2] was 0.02 mS/cm. For the same compound, the Zeta potential [2] was 0.38 mV, the “Average viscosity ± SD” value ([3]; cone and plate, 1 mL sample) was 1.57 ± 0.01 ×10^−2 Pa · s and the “Rheological property (Newtonian or non-Newtonian fluid)” value ([3]; viscosity versus shear rate) was “Newtonian fluids”. The IC50 [4] was 70 µg/mL (≈ 0.372 mM), the “Flux ± SD” value [5] was 2.29 ± 0.23 10^−3 μg/cm^2 · s and the “Peff ± SD” value [5] was 0.76 ± 0.08 10^−6 cm/s. The Papp at 6 h [6] was 1.59 ± 0.09 ×10⁻⁶ cm/s, the “Flux ± SD” value [7] was 0.32 ± 0.02 10^−3 μg/cm^2 · s and the Growth of tumor ([8]; 160 mg/kg or 320 mg/kg, compared to control group) was “effective in inhibiting the growth of tumor”. For the same compound, the Survival rate ([8]; 160 mg/kg, 30 days) was “significantly increased and similar survival rates”, the “Volume and weight of tumor” value ([8]; 160 mg/kg, 30 days) was “significantly reduced and similar volume and weight of tumor” and the solubility ([9]; in ethanol) was over 222 mg/mL. It also gave a solubility ([9]; in polyethylene glycol 400, polyethylene glycol 300 or polypropylene glycol) of 70 to 120 mg/mL (≈ 372 to 638 mM).
